# Experiments:
# CLP-induced sepsis = assay: Cecal ligation and puncture (CLP) sepsis model, xyphoid temperature; format: in vivo; settings: CLP mice; SUL-138 5 mg/kg s.c. 2 hours before and 8 hours after surgery; 24 hr after procedure
# Experimental: Male C57/BL6J mice were housed at room temperature at a light-dark cycle of 12:12 hour. Animals were fed ad libitum using standard animal lab chow and they had free access to drinking water at all times.
# (§1) To induce sepsis, the standard cecal ligation and puncture (CLP) model was used. Animals were anesthetized by subcutaneous injection of xylazine/ketamine (100/10 mg/kg), followed by administration of buprenorphine (0.1 mg/kg) as analgesic. After confirmation of anesthesia by lack of response to paw pinch and eye reflex, the abdomen was shaved, cleaned, and de-germed using a povidone-iodine solution before a 1-cm midline incision was made. The cecum was ligated with a 6-0 suture at half the distance between distal pole and the base of the cecum and punctured once with a 21-Gauge needle (‘through-and-through’ from mesenteric toward anti-mesenteric direction) which is an accepted model for ‘mid-grade’ sepsis. A small amount of stool (2-3 mm) was then extruded to ensure wound patency. The cecum was repositioned, thereby taking care not to spill fecal material on the wound edges, followed by closure of the abdomen by running sutures to the abdominal musculature and short interrupted sutures to the skin. Next, 1 ml of saline (warmed, 0.9% NaCl s.c.) was administered to compensate for the expected relative volume depletion due to the onset of sepsis.
# Mice recovered at 26-28° C. […]
# IL-1β mRNA expression = assay: Inhibition of LPS-induced IL-1β mRNA expression in HUVEC; format: cell-based, Human; settings: 10 μM for 30 min, then LPS 24 hours
# Experimental: Human Umbilical Cord Endothelial Cells (HUVEC, Lonza CC-2519) were maintained on 1% gelatin-coated culture flasks in RPMI1640 medium containing 20% fetal bovine serum, 2 mM Glutamine (Sigma-Aldrich), 1% Penicillin-Streptomycin solution (Sigma-Aldrich) and 50 μg/ml Bovine Pituitary Extract (Invitrogen). HUVEC were passaged by trypsinization when the cultures reach a confluency of 70%. For all experiments, HUVEC were seeded at 0.6·10^5 cells/cm^2 and allowed to adhere for 24 hours.
# (§2) HUVEC and NRK52E cells were pre-incubated with SUL compounds (10 μM) for 30 min and subsequently exposed to LPS for 24 hours under standard culture conditions. Cells were lysed in triZOL reagens (Invitrogen) and total RNA isolated according to manufacturers' instruction. 1 μg total RNA per sample was reverse transcribed using the FirstAid Reverse Transcription Kit (ThermoFisher). Copy-DNA equivalents of 5 ng total RNA were amplified on a ViiA7 Real-time PCR system (ThermoFisher, Waltham, Mass.) using iTaq Universal SYBR Green Supermix (Bio-Rad, Hercules, Calif.) and primers specific for tumor necrosis factor alpha, interleukin 1 beta, interleukin-6 and beta actin as loading control. Amplification was performed for 40 cycles of 95° C. for 30 s, 60° C. for 1 min. Relative mRNA expression was calculated as 2^−(Cq^gene^−Cq^reference^) and normalized to unstimulated control cells (100% inhibition) and vehicle-treated and LPS exposed cells (0% inhibition). The following primers were used: […]
# IL-6 mRNA expression = assay: Inhibition of LPS-induced IL-6 mRNA expression in NRK52E; format: cell-based, Rat; settings: 10 μM for 30 min, then LPS 24 hours
# Experimental: Rat kidney epithelial cells (ATCC #CRL-1571) were maintained in DMEM medium containing 10% fetal bovine serum, and 1% Penicillin-Streptomycin solution (Sigma-Aldrich). NRK52E cells were passaged by trypsinization when the cultures reached a confluency of 70%. For all experiments, NRK52E cells were seeded at 0.6·10^5 cells/cm^2 and allowed to adhere for 24 hours.
# as §2
# [1] = system: CLP-induced kidney dysfunction; assay: CLP sepsis model, serum urea and NGAL as kidney biomarkers; format: in vivo; settings: CLP mice; SUL-138 5 mg/kg s.c. 2 h before and 8 h after surgery; 24 hours
# Experimental: as §1, with “of sepsis. […]” for “of sepsis.”
# Furthermore, the amount of NGAL and urea were measured in serum.
# HUVEC = HUVEC cell survival after 48 hours LPS (Cyquant); format: cell-based, Human; settings: 48 hours with LPS, SUL-138 pre-incubation
# Experimental: Human Umbilical Vein Endothelial cells (HUVEC) were obtained from the RuG/UMCG Endothelial Cell Facility. Primary isolates of umbilical cords were mixed and subsequently cultured on HUVEC culture medium, consisted of RPMI 1640 (Lonza, art.nr. BE12-115F) supplemented with 20% heat-inactivated fetal calf serum (ThermoFisher Scientific, art.nr. 10082147), 2 mM 1-glutamine (Life Technologies art.nr. 25030), 5 U/ml heparin (Leo Pharmaceutical Products), 1% Penicillin/Streptomycin (Sigma-Aldrich art.nr. P4333), and 50 μg/ml EC growth factor supplement from (Sigma-Aldrich, art.nr. E2759).
# Primary HUVECs were cultured in 75-cm2 tissue culture flasks (Corning, art.nr. 430720U) at 37° C. under 5% CO2/95% air. HUVECs were used for experiments up to passage 8. Experiments were performed in 6-well (Corning art.nr. 3506) or 96-well culture plates (Corning, art.nr. 3596), at 80% confluency. Cells were stimulated with LPS E. coli 0111:B4 (Sigma-Aldrich, art.nr. L2630) in different concentrations. Cells were detached with trypsin (Sigma-Aldrich, art.nr. 25300054). All compounds were dissolved in Hanks Balanced Salt Solution (Lonza, art.nr. 10-527F).
# HUVECs were pre-incubated with SUL-138 in an amount of 10 microgram/ml, which was added one hour prior to LPS-stimulation. Such pre-incubation is the standard in in vitro models.
smiles,measurement,setting,value
"Cc1c(C)c2c(c(C)c1O)CC[C@@](C)(C(=O)N1CCN(CCO)CC1)O2 [SUL-138, (S)-(6-hydroxy-2,5,7,8-tetramethylchroman-2-yl)(4-(2-hydroxyethyl)piperazin-1-yl)methanone]",xiphoid temperature,CLP-induced sepsis,restored after 24 hours
same,inhibition of LPS-induced mRNA expression of IL-1β,IL-1β mRNA expression,76.3 ± 7.9 %
same,inhibition of LPS-induced mRNA expression of IL-6,IL-6 mRNA expression,65.3 ± 7.6 %
same,Serum NGAL level,[1],not different from Sham operated animals
same,Serum urea level,[1],not different from Sham operated animals
same,cell survival (Cyquant),HUVEC,restores cell survival after 48 hours

# — US20230202997A1, “CHROMANOL, QUINONE OR HYDROQUINONE COMPOUNDS FOR TREATMENT OF SEPSIS” (Sulfateq B.V., priority 2020, published 2023)
